From paper PMC9030254, “Target Hopping from Protein Kinases to PXR: Identification of Small-Molecule Protein Kinase Inhibitors as Selective Modulators of Pregnane X Receptor from TüKIC Library” (Cells, 2022)

Legend:
Test in all cases: Kinase profiling
Type in all cases: biochemical
EPHA8 = target: T1, EPHA8 (Homo sapiens, UniProt P29322)
T1 construct: purchased ProQinase (Freiburg, Germany)
T1 sequence (P29322 28-1005): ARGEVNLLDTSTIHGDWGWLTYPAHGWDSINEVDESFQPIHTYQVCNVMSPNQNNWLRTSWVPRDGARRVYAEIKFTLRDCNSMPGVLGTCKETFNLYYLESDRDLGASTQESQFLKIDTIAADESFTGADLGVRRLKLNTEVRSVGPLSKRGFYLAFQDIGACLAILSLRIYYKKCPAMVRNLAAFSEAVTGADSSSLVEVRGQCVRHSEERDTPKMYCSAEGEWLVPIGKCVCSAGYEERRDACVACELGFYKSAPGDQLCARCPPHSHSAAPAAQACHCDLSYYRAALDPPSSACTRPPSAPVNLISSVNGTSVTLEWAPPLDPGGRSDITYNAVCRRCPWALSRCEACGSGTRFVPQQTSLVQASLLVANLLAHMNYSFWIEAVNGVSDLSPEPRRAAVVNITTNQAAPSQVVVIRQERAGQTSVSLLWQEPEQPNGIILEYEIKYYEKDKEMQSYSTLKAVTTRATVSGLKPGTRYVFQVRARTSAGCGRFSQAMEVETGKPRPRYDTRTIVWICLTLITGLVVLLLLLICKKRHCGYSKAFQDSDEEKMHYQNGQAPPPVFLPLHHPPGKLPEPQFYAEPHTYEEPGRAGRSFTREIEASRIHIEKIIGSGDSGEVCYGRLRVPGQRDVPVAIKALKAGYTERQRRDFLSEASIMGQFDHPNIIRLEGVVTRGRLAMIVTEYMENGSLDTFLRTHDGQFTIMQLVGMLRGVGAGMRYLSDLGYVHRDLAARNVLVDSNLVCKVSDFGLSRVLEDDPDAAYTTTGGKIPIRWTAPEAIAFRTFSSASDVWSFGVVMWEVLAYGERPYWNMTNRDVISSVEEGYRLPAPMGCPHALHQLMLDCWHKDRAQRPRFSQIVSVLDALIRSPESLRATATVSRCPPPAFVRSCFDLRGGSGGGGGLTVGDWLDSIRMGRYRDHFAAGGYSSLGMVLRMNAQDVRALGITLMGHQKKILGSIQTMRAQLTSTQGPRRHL
Experimental: (§1) The analysis was performed by ProQinase (Freiburg, Germany).

MAP4K2 = target: T2, MAP4K2 (Homo sapiens, UniProt Q12851)
T2 construct: purchased ProQinase (Freiburg, Germany)
T2 sequence (Q12851 1-820): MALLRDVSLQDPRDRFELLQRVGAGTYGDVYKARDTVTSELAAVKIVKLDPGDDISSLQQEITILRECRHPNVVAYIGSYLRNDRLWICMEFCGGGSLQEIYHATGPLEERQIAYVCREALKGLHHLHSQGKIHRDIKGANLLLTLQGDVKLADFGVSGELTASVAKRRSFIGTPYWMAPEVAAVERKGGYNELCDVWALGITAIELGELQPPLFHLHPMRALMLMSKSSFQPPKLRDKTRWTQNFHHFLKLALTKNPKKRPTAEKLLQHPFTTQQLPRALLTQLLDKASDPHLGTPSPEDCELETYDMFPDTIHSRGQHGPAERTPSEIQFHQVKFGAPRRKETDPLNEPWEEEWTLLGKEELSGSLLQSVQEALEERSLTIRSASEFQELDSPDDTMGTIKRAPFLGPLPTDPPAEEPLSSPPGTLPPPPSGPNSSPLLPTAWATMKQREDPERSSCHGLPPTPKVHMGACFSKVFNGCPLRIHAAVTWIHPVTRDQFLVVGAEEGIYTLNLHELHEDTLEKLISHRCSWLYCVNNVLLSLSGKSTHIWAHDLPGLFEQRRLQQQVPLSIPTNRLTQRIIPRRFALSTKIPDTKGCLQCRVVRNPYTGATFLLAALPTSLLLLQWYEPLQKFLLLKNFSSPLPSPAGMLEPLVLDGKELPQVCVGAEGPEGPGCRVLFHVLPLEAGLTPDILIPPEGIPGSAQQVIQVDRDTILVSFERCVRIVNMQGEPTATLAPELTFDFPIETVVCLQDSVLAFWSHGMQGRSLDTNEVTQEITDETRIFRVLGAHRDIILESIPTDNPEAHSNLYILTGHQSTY
Experimental: as §1

CDK2/CycE1 = target: T3, CDK2/CycE1 (Homo sapiens, UniProt P24941)
T3 construct: purchased ProQinase (Freiburg, Germany)
Experimental: as §1

NEK9 = target: T4, NEK9 (Homo sapiens, UniProt Q8TD19)
T4 construct: purchased ProQinase (Freiburg, Germany)
T4 sequence (Q8TD19 1-979): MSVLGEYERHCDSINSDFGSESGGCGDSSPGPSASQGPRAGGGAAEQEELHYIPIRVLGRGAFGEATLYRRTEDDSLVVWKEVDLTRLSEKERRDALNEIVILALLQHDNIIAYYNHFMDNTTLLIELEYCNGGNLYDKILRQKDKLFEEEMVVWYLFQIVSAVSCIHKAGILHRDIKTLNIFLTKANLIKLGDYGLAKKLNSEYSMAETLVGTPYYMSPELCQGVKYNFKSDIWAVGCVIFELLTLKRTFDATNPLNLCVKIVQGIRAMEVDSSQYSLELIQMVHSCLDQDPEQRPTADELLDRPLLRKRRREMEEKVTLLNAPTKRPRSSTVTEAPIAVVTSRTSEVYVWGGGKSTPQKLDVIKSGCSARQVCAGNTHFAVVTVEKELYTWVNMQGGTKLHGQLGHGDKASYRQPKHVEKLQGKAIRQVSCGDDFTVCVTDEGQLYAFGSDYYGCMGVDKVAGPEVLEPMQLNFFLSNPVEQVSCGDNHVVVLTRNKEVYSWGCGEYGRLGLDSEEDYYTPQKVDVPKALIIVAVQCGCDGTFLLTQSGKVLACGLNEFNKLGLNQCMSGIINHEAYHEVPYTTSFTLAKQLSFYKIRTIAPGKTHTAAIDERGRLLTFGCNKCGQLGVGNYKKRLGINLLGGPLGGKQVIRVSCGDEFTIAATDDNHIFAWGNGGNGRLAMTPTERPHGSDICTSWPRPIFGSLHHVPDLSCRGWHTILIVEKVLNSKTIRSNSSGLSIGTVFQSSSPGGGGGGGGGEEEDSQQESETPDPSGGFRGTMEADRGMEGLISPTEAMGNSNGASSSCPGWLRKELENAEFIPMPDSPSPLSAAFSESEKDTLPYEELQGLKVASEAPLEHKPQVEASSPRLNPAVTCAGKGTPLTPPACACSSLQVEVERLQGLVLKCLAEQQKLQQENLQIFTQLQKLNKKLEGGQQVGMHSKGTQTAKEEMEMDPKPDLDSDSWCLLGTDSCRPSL
Experimental: as §1

| Compound | Residual activity (EPHA8; 1.0E-05 M) | Residual activity (EPHA8; 1.0E-06 M) | Residual activity (MAP4K2; 1.0E-05 M) | Residual activity (MAP4K2; 1.0E-06 M) | Residual activity (CDK2/CycE1; 1.0E-05 M) | Residual activity (CDK2/CycE1; 1.0E-06 M) | Residual activity (NEK9; 1.0E-05 M) | Residual activity (NEK9; 1.0E-06 M) |
| --- | --- | --- | --- | --- | --- | --- | --- | --- |
| O=C(Nc1ccc(F)c(Nc2ccc3c(c2)CCCCC3=O)c1)c1cccc(F)c1 [Compound 109] | 91 % of control | 110 % of control | 93 % of control | 95 % of control | 103 % of control | 93 % of control | 81 % of control | 96 % of control |
| O=C(Cc1ccccc1)Nc1ccc(F)c(Nc2ccc3c(c2)CCCCC3=O)c1 [Compound 100] | 91 % of control | 98 % of control | 71 % of control | 94 % of control | 118 % of control | 86 % of control | 93 % of control | 86 % of control |
